Data published in patent US9597391B2, “Cyclic-dinucleotides and its conjugates as adjuvants and their uses in pharmaceutical compositions” (HELMHOLTZ_ZENTRUM FUER INFEKTIONSFORSCHUNG GMBH, priority 2005, dated 2017).
“Also recorded” adds a separate entry of the source.

Legend:
[1] = tested on: re-stimulated spleen cells; assay: Cytokines in supernatants of in vitro re-stimulated spleen cells by cytometric bead array; type: in vivo, mice; conditions: for IL-6 secretion of re-stimulated spleen cells: versus β-Gal without adjuvant (FIGS. 8 and 9); for IFNγ secretion of re-stimulated spleen cells: versus β-Gal without adjuvant, c-diGMP data from i.n. immunized mice (FIG. 7, FIG. 9)
Procedure: Experimental protocol: Spleens from mucosal (i.n.) or parenteral (s.c.) vaccinated mice were removed and pooled for analysis of cellular immune responses. The protocol for vaccination was identical to the protocol described in Example 2. Cells were grown in RPMI 1640 supplemented with 10% fetal calf serum, 100 U/ml of penicillin, 50 μg/ml of streptomycin, 5×10^−5 M 2-mercaptoethanol and 1 mM L-glutamine (GIBCO BRL, Karlsruhe, Germany) and maintained at 37° C. in a humidified 5% CO2 atmosphere. Spleen cell suspensions were adjusted to 5×10^6 cells/ml in complete medium, cells were seeded with 100 μl per well in a flat-bottomed 96-well microtiter plate (Nunc) and plates were incubated for 4 days in the presence of different concentrations of soluble β-gal.
To characterize the type of Th response stimulated following immunization, the content of IFNγ, IL-6, IL-10, IL-12 (for c-diAMP only), MCP-1, and TNFα was measured in supernatants from in vitro re-stimulated spleen cells (FIG. 7 and 8 for c-diGMP and FIG. 9 for c-diAMP) by the Cytometric Bead Array. Culture supernatants from proliferating cells were collected on days 2 and 4, and stored at −70° C. Determination of IFNγ, TNFα, IL-6, IL-10, IL-12, and MCP-1 was performed by cytometric bead array (CBA) analysis using the commercial kit from BectonDickinson, according to the manufacturer's instructions or with commercially available ELISA systems. For CBA analysis, a standard curve was generated for each cytokine by using the corresponding recombinant murine cytokines (Pharmingen). Probes were incubated at room temperature for additional 2h. The probes were analyzed subsequently by flow cytometry as described in the protocol of BD.

BALB/c (H-2d) mice = assay: β-gal-specific IgA in lung and vaginal lavages of immunized mice; type: in vivo; conditions: for β-gal-specific IgA in lung lavages: i.n. immunization, day 38, versus β-gal alone (FIG. 4, FIG. 5)
Procedure: Experimental protocol: at day 38, mice were sacrificed and the final sampling was performed. Vaginal and lung lavages were obtained by flushing the organs with 1 ml of PBS supplemented with 50 mM EDTA, 0.1% BSA, and 10 mM PMSF. Lavages were then centrifuged to remove debris (10 min at 3000×g), and supernatant fluids were stored at −20° C. To determine the concentration of total IgA present in the lung and vaginal lavages, serial dilutions of the corresponding samples were incubated in microtiter plates that were previously coated with goat anti-mouse IgA (Sigma Chemie), as capture antibodies (100 μl/well). Serial dilutions of purified mouse IgA (Sigma Chemie) were used to generate a standard curve.
To investigate the capacity of c-diGMP and c-diAMP, respectively, to stimulate mucosal responses against antigens co-administered by the i.n. and s.c. route, the production of β-gal-specific IgA in lung was analyzed (FIG. 5 for c-diAMP and FIG. 4 for c-diGMP) from immunized animals, immunized according to the protocol described in Example 2.

spleen cells = assay: [3H]thymidine proliferation of spleen cells from vaccinated mice restimulated in vitro with β-gal; type: in vivo; conditions: for T cell proliferation after i.n. and s.c. administration: versus β-gal alone; for proliferation of spleen cells, i.n. immunization / proliferation of spleen cells, s.c. immunization: day 38, in vitro restimulation with β-gal; for proliferation of spleen cells, i.n. immunization: low amounts of antigen (FIG. 6); for proliferation of spleen cells, s.c. immunization: [3H]thymidine (FIG. 6)
Procedure: Experimental protocol: Spleens were removed and pooled for analysis of cellular immune responses. Cells were grown in RPMI 1640 supplemented with 10% fetal calf serum, 100 U/ml of penicillin, 50 μg/ml of streptomycin, 5×10^−5 M 2-mercaptoethanol and 1 mM L-glutamine (GIBCO BRL, Karlsruhe, Germany) and maintained at 37° C. in a humidified 5% CO2 atmosphere. Spleen cell suspensions were adjusted to 5×10^6 cells/ml in complete medium, cells were seeded with 100 μl per well in a flat-bottomed 96-well microtiter plate (Nunc) and plates were incubated for 4 days in the presence of different concentrations of soluble β-gal. That is, T cell mediated immune responses were investigated at day 38 by measuring the proliferation after in vitro restimulation with β-Gal of cells which have been recovered from spleens before. Said spleen cells were obtained from vaccinated mice—said mice where immunized as described in Example 2—and incubated in the presence of different concentrations of the soluble β-Gal antigen. Each concentration was tested in quadruplicates. During the final 18 h of culture, 1 μCi of [3H]thymidine (Amersham International, Freiburg, Germany) was added to each well. Cells were then harvested on paper filters (Filtermat A; Wallac, Freiburg, Germany) by using a cell harvester (Inotech, Wohlen, Switzerland), and the amount of incorporated [3H]thymidine into the DNA of proliferating cells was determined by a β-scintillation counter (Wallac 1450, Micro-Trilux). The results are expressed as the arithmetic mean of [^3H]thymidine uptake in cpm.
Thirty eight days following vaccination, spleens cells were purified, re-stimulated in vitro in the presence of various amounts of β-galactosidase and their proliferative capacity was estimated by measuring the incorporation of [3H]thymidine into their DNA using a β-scintillation counter.

SMILES | type of Th response induced ([1]; mice immunized with β-gal plus adjuvant) | TNFα secretion of re-stimulated spleen cells ([1]; versus β-Gal without adjuvant (FIG. 9)) | IL-6 secretion of re-stimulated spleen cells [1] | IFNγ secretion of re-stimulated spleen cells [1] | β-gal specific sIgA expression in vaginal lavage (BALB/c (H-2d) mice; c-diAMP as adjuvant, i.n. (FIG. 5)) | β-gal-specific IgA in lung lavages (BALB/c (H-2d) mice) | T cell proliferation after i.n. and s.c. administration (spleen cells) | proliferation of spleen cells, i.n. immunization (spleen cells) | proliferation of spleen cells, s.c. immunization (spleen cells) | Th1 like cytokines in antigen restimulated spleen cells ([1]; β-gal/c-diGMP versus β-gal alone (FIG. 8B)) | β-gal-specific IgA in lung lavages (BALB/c (H-2d) mice; listed as c-dGMP) | β-gal specific sIgA expression in vaginal lavage, s.c. route (BALB/c (H-2d) mice; s.c. route (not shown))
Nc1ncnc2c1ncn2[C@@H]1O[C@@H]2COP(=O)(O)O[C@H]3[C@@H](O)[C@H](n4cnc5c(N)ncnc54)O[C@@H]3COP(=O)(O)O[C@H]2[C@H]1O [c-diAMP, cyclic bis(3′-5′)diadenylic acid] | balanced Th1/Th2 response | enhanced secretion | same results | enhanced secretion | detectable | significant increase | statistically significant increment | efficient proliferative response | further increase in proliferation | – | – | –
Nc1nc2c(ncn2[C@@H]2O[C@@H]3COP(=O)(O)O[C@H]4[C@@H](O)[C@H](n5cnc6c(=O)[nH]c(N)nc65)O[C@@H]4COP(=O)(O)O[C@H]3[C@H]2O)c(=O)[nH]1 [c-diGMP, cyclic bis(3′-5′)diguanylic acid] | – | – | same results | strong expression; also recorded: enhanced secretion | – | higher | statistically significant increment | efficient proliferative response | further increase in proliferation | high expression | significant increase | does not lead to an enhanced expression
